≈ marks a conversion by molar mass, not a printed value. Read-outs that look alike come from different tables or passages of the source.
Experiments:
K. pneumoniae 700721 = test: Minimal inhibitory concentration, K. pneumoniae 700721; assay type: cell-based; details: 16 hour minimal inhibitory concentration at 37° C., read-out: MIC (μM) K. pneumoniae 700721
How it was run: (§1)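 Growth at 600 nm after 16 h at 37 °C without shaking defines the MIC, taken as the lowest compound concentration that prevents growth and expressed in µM. Cultures grown to saturation in LB, or TSA for S. aureus, were diluted 1:100 twice before twofold serial compound dilution.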

E. coli MC4100 = test: Minimal inhibitory concentration, E. coli MC4100; assay type: cell-based; details: 16 hour minimal inhibitory concentration at 37° C., read-out: MIC (μM) E. coli MC4100 ara+
How it was run: as §1

E. coli 25922 = test: Minimal inhibitory concentration, E. coli 25922; assay type: cell-based; details: 16 hour minimal inhibitory concentration at 37° C., read-out: MIC (μM) E. coli 25922
How it was run: as §1

WT E. coli = test: Minimal inhibitory concentration in wild-type E. coli; assay type: cell-based, Escherichia coli; details: wild-type E. coli, 37° C., 16 hours, read-out: MIC (μM) in WT E. coli
How it was run: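 Broth microdilution: saturated LB overnight culture diluted 1:100 twice, compound serially two-fold diluted across the plate from DMSO stock. Static incubation 16 hours at 37° C, OD600 read; MIC taken as lowest concentration inhibiting growth.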

S. aureus RN4220 = test: Minimal inhibitory concentration, S. aureus RN4220; assay type: cell-based; details: 16 hour minimal inhibitory concentration at 37° C., read-out: MIC (μM) S. aureus RN4220
How it was run: as §1

E. cloacae 13047 = test: Minimal inhibitory concentration, E. cloacae 13047; assay type: cell-based; details: 16 hour minimal inhibitory concentration at 37° C., read-out: MIC (μM) E. cloacae 13047
How it was run: as §1

S. aureus MW2 = test: Minimal inhibitory concentration, S. aureus MW2; assay type: cell-based; details: 16 hour minimal inhibitory concentration at 37° C., read-out: MIC (μM) S. aureus MW2 (MRSA)
How it was run: as §1

A. baumannii 19606 = test: Minimal inhibitory concentration, A. baumannii 19606; assay type: cell-based; details: 16 hour minimal inhibitory concentration at 37° C., read-out: MIC (μM) A. baumannii 19606
How it was run: as §1

Row | Structure (SMILES) | MIC (K. pneumoniae 700721) | MIC (E. coli MC4100) | MIC (E. coli 25922) | MIC (WT E. coli) | MIC (S. aureus RN4220) | MIC (E. cloacae 13047) | MIC (S. aureus MW2) | MIC (A. baumannii 19606) | MIC (K. pneumoniae 700721; Klebsiella pneumoniae, 700721) | MIC (E. coli MC4100; Escherichia coli, MC4100, 16 h) | MIC (E. coli 25922; Escherichia coli, 25922, 16 h) | MIC (WT E. coli; Escherichia coli) | MIC (S. aureus RN4220; Staphylococcus aureus, RN4220, 16 h) | MIC (E. cloacae 13047; Enterobacter cloacae, 13047) | MIC (S. aureus MW2; Staphylococcus aureus, MRSA, 16 h) | MIC (A. baumannii 19606; Acinetobacter baumannii, 19606, 16 h)
1 | CO[C@@H]1[C@@H](OC(N)=O)[C@@H](O)[C@H](Oc2ccc3c(O)c(NC(=O)c4cc(-c5ccc(F)cc5)c(O)cc4O)c(=O)oc3c2C)OC1(C)C [Compound 84] | 40 µM (≈ 26.2 µg/mL) | 8 µM (≈ 5.24 µg/mL) | 10 µM (≈ 6.55 µg/mL) | 8 µM (≈ 5.24 µg/mL) | 5 µM (≈ 3.27 µg/mL) | 81 µM (≈ 53 µg/mL) | 5 µM (≈ 3.27 µg/mL) | >50 µM | – | – | – | – | – | – | – | –
2 | CO[C@@H]1[C@@H](OC(N)=O)[C@@H](O)[C@H](Oc2ccc3c(O)c(NC(=O)c4cc(-c5ccccc5)ccc4N)c(=O)oc3c2C)OC1(C)C [Compound 85] | >100 µM | 59 µM (≈ 36.6 µg/mL) | 40 µM (≈ 24.8 µg/mL) | 59 µM (≈ 36.6 µg/mL) | 5 µM (≈ 3.1 µg/mL) | >100 µM | 2.5 µM (≈ 1.55 µg/mL) | >50 µM | – | – | – | – | – | – | – | –
3 | CO[C@@H]1[C@@H](OC(N)=O)[C@@H](O)[C@H](Oc2ccc3c(O)c(NC(=O)c4ccc(N)c(-c5ccccc5)c4)c(=O)oc3c2C)OC1(C)C [Compound 86] | 40 µM (≈ 24.8 µg/mL) | 18 µM (≈ 11.2 µg/mL) | 20 µM (≈ 12.4 µg/mL) | 18 µM (≈ 11.2 µg/mL) | 20 µM (≈ 12.4 µg/mL) | >100 µM | 20 µM (≈ 12.4 µg/mL) | >50 µM | – | – | – | – | – | – | – | –
4 | CO[C@@H]1[C@@H](OC(N)=O)[C@@H](O)[C@H](Oc2ccc3c(O)c(NC(=O)c4cc(-c5ccccc5)ccc4O)c(=O)oc3c2C)OC1(C)C [Compound 87] | 40 µM (≈ 24.8 µg/mL) | 18 µM (≈ 11.2 µg/mL) | 20 µM (≈ 12.4 µg/mL) | 18 µM (≈ 11.2 µg/mL) | 20 µM (≈ 12.4 µg/mL) | >100 µM | 20 µM (≈ 12.4 µg/mL) | >50 µM | – | – | – | – | – | – | – | –
5 | CO[C@@H]1[C@@H](OC(N)=O)[C@@H](O)[C@H](Oc2ccc3c(O)c(NC(=O)c4cccc(-c5ccccc5)c4O)c(=O)oc3c2C)OC1(C)C [Compound 88] | >100 µM | 89 µM (≈ 55.2 µg/mL) | 161 µM (≈ 99.9 µg/mL) | 89 µM (≈ 55.2 µg/mL) | >100 µM | >100 µM | 81 µM (≈ 50.3 µg/mL) | >50 µM | – | – | – | – | – | – | – | –
6 | CO[C@@H]1[C@@H](OC(N)=O)[C@@H](O)[C@H](Oc2ccc3c(O)c(NC(=O)c4cc(N)cc(-c5ccccc5)c4)c(=O)oc3c2C)OC1(C)C [Compound 89] | >100 µM | 59 µM (≈ 36.6 µg/mL) | 81 µM (≈ 50.2 µg/mL) | 59 µM (≈ 36.6 µg/mL) | 20 µM (≈ 12.4 µg/mL) | >100 µM | 10 µM (≈ 6.2 µg/mL) | >50 µM | – | – | – | – | – | – | – | –
7 | CO[C@@H]1[C@@H](OC(N)=O)[C@@H](O)[C@H](Oc2ccc3c(O)c(NC(=O)c4ccc(O)c(CC(N)=O)c4)c(=O)oc3c2C)OC1(C)C [Compound 90] | >100 µM | >200 µM | >200 µM | >300 µM | >100 µM | >100 µM | >100 µM | >50 µM | – | – | – | – | – | – | – | –
8 | CO[C@@H]1[C@@H](OC(N)=O)[C@@H](O)[C@H](Oc2ccc3c(O)c(NC(=O)c4ccc(O)c(CCC(N)=O)c4)c(=O)oc3c2C)OC1(C)C [Compound 91] | >100 µM | >200 µM | >200 µM | >300 µM | >100 µM | >100 µM | >100 µM | >50 µM | – | – | – | – | – | – | – | –
9 | CO[C@@H]1[C@@H](OC(N)=O)[C@@H](O)[C@H](Oc2ccc3c(O)c(NC(=O)c4ccc(O)c(-c5ccc6ccccc6c5)c4)c(=O)oc3c2C)OC1(C)C [Compound 92] | >100 µM | 150 µM (≈ 101 µg/mL) | >200 µM | 150 µM (≈ 101 µg/mL) | 0.09 µM (≈ 0.0604 µg/mL) | >100 µM | 0.09 µM (≈ 0.0604 µg/mL) | 1.16 µM (≈ 0.778 µg/mL) | – | – | – | – | – | – | – | –
10 | CO[C@@H]1[C@@H](OC(N)=O)[C@@H](O)[C@H](Oc2ccc3c(O)c(NC(=O)c4ccc(O)c(-c5cccc6ccccc56)c4)c(=O)oc3c2C)OC1(C)C [Compound 93] | >100 µM | 75 µM (≈ 50.3 µg/mL) | >200 µM | 75 µM (≈ 50.3 µg/mL) | 37 µM (≈ 24.8 µg/mL) | >100 µM | 19 µM (≈ 12.7 µg/mL) | >50 µM | – | – | – | – | – | – | – | –
11 | CO[C@@H]1[C@@H](OC(N)=O)[C@@H](O)[C@H](Oc2ccc3c(O)c(NC(=O)c4cccc(-c5ccc(O)c(O)c5)c4)c(=O)oc3c2C)OC1(C)C [Compound 94] | >100 µM | >200 µM | >200 µM | >300 µM | 20 µM (≈ 12.7 µg/mL) | >100 µM | 20 µM (≈ 12.7 µg/mL) | >50 µM | – | – | – | – | – | – | – | –
12 | CO[C@@H]1[C@@H](OC(N)=O)[C@@H](O)[C@H](Oc2ccc3c(O)c(NC(=O)c4cc(O)c(O)c(-c5ccc(F)cc5)c4)c(=O)oc3c2C)OC1(C)C [Compound 95] | >100 µM | 38 µM (≈ 24.9 µg/mL) | 38 µM (≈ 24.9 µg/mL) | 38 µM (≈ 24.9 µg/mL) | 38 µM (≈ 24.9 µg/mL) | >100 µM | 38 µM (≈ 24.9 µg/mL) | >50 µM | – | – | – | – | – | – | – | –
13 | CO[C@@H]1[C@@H](OC(N)=O)[C@@H](O)[C@H](Oc2ccc3c(O)c(NC(=O)c4cc(O)c(O)c(-c5ccc6ccccc6c5)c4)c(=O)oc3c2C)OC1(C)C [Compound 96] | 76 µM (≈ 52.2 µg/mL) | >200 µM | 146 µM (≈ 100 µg/mL) | >300 µM | 9 µM (≈ 6.18 µg/mL) | >100 µM | 9 µM (≈ 6.18 µg/mL) | 18 µM (≈ 12.4 µg/mL) | – | – | – | – | – | – | – | –
14 | CO[C@@H]1[C@@H](OC(N)=O)[C@@H](O)[C@H](Oc2ccc3c(O)c(NC(=O)c4cc(-c5ccc(F)cc5)cc(O)c4O)c(=O)oc3c2C)OC1(C)C [Compound 97] | >100 µM | >200 µM | 153 µM (≈ 100 µg/mL) | >300 µM | 76 µM (≈ 49.7 µg/mL) | >100 µM | 38 µM (≈ 24.9 µg/mL) | >50 µM | – | – | – | – | – | – | – | –
15 | CO[C@@H]1[C@@H](OC(N)=O)[C@@H](O)[C@H](Oc2ccc3c(O)c(NC(=O)c4cc(-c5ccc6ccccc6c5)cc(O)c4O)c(=O)oc3c2C)OC1(C)C [Compound 98] | >100 µM | >200 µM | >200 µM | >300 µM | 18 µM (≈ 12.4 µg/mL) | >100 µM | 18 µM (≈ 12.4 µg/mL) | 36 µM (≈ 24.7 µg/mL) | – | – | – | – | – | – | – | –
16 | CO[C@@H]1[C@@H](OC(N)=O)[C@@H](O)[C@H](Oc2ccc3c(O)c(NC(=O)c4cccc(-c5cccc(O)c5O)c4)c(=O)oc3c2C)OC1(C)C [Compound 99] | >100 µM | >200 µM | >200 µM | >300 µM | 79 µM (≈ 50.3 µg/mL) | >100 µM | 79 µM (≈ 50.3 µg/mL) | >50 µM | – | – | – | – | – | – | – | –
17 | CO[C@@H]1[C@@H](OC(N)=O)[C@@H](O)[C@H](Oc2ccc3c(O)c(NC(=O)c4ccc(O)c(CC=C(C)C)c4)c(=O)oc3c2C)OC1(C)C [Novobiocin, novobiocin, reference compound] | – | – | – | – | – | – | – | – | > 100 µM | 59 µM (≈ 36.1 µg/mL) | 40 µM (≈ 24.5 µg/mL) | 59 µM (≈ 36.1 µg/mL) | 0.2 µM (≈ 0.123 µg/mL) | > 100 µM | 0.25 µM (≈ 0.153 µg/mL) | 1.27 µM (≈ 0.778 µg/mL)

Source: patent US11713335B2, “Aminocoumarin compounds and methods of their use” (President and Fellows of Harvard College, priority 2018, dated 2023)
